# Experimental data from PMC11513923, “Discovery of ZLC491 as a Potent, Selective, and Orally Bioavailable CDK12/13 PROTAC Degrader” (Journal of Medicinal Chemistry, 2024).
# Tests used:
# DDR genes = assay: RT-qPCR of DDR genes in MDA-MB-231 cells; format: cell-based, human; conditions: MDA-MB-231, different doses, 12 h
# Experimental: We next evaluated the effect of ZLC491 on the expression of DDR genes regulated by CDK12/13.
# (A) Transcription level of DDR genes in MDA-MB-231 cells determined by RT-qPCR upon the treatment with vehicle or ZLC491 at different doses for 12 h, ROR1 was used as a negative control; (B) immunoblotting of DDR proteins in MDA-MB-231 cells after the treatment of ZLC491 at different doses for 48 h; (C) cell antiproliferative activity of ZLC491 in multiple TNBC cells as well as several noncancerous cells. Cells were treated with the compound for 5 days; (D,E) antiproliferative potency of cisplatin or olaparib alone or combined with ZLC491 at different doses in MDA-MB-231 cells for 5 days. Data are plotted using the percentage of absorbance relative to DMSO controls. (F) IC50 values and combination index (CI) in drug combination assay. In this model, CI scores estimate the interaction between the two drugs. If CI < 1, the drugs have a synergistic effect and if CI > 1, the drugs have an antagonistic effect. […]
# RNA utilized for RT-qPCR was extracted as outlined below. […] Expression was normalized to GAPDH, and fold change in expression was calculated relative to the indicated conditions using ΔΔCt method.
# CDK12 = CDK12 (Homo sapiens, UniProt Q9NYV4); assay: CDK12 degradation in MDA-MB-231 cells by immunoblotting; format: cell-based; set-up: Immunoblotting of CDK12 and CDK13 in MDA-MB-231 cells treated with increasing concentrations of ZLC491 for 15 h; endogenous in cells; host or cells: MDA-MB-231
# CDK12, sequence (Q9NYV4 whole entry): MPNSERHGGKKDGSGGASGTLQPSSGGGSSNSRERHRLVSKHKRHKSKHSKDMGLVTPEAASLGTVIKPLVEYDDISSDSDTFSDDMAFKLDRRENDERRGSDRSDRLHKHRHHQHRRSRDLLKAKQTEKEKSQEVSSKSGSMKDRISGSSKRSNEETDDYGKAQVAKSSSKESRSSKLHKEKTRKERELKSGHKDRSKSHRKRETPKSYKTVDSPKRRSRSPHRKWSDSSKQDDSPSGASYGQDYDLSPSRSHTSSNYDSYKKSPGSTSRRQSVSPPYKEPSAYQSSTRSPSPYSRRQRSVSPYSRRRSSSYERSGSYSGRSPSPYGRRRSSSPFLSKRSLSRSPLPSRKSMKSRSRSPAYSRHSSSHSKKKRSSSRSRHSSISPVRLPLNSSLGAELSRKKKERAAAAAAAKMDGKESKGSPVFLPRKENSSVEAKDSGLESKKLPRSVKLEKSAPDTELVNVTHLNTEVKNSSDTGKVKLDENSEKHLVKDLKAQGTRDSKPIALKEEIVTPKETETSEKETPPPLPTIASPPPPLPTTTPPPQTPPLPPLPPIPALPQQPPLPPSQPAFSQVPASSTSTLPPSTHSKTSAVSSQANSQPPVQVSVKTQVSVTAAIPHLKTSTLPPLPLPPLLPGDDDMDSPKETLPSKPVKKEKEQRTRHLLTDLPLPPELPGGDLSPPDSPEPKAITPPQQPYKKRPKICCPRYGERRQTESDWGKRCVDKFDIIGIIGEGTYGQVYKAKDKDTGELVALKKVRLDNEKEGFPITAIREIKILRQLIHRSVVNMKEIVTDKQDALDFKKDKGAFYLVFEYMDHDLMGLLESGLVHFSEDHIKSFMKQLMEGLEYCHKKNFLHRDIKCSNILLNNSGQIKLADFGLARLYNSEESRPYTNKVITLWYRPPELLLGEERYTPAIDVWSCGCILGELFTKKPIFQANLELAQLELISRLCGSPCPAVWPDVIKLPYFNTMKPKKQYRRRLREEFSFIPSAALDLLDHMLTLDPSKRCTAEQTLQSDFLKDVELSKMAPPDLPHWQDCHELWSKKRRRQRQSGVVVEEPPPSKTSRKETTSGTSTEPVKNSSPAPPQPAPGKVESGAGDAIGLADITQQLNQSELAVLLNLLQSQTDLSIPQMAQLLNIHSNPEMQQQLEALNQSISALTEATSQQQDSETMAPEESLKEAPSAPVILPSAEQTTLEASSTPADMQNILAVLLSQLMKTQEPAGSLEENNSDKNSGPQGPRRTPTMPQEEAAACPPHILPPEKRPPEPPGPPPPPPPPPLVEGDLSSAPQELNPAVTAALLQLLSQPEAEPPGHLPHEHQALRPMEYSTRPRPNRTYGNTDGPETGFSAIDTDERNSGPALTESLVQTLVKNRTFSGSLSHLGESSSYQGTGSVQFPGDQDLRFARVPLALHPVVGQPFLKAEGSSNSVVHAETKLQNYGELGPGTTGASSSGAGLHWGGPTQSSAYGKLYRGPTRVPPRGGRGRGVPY
# CDK12, sequence (O75909 whole entry partner): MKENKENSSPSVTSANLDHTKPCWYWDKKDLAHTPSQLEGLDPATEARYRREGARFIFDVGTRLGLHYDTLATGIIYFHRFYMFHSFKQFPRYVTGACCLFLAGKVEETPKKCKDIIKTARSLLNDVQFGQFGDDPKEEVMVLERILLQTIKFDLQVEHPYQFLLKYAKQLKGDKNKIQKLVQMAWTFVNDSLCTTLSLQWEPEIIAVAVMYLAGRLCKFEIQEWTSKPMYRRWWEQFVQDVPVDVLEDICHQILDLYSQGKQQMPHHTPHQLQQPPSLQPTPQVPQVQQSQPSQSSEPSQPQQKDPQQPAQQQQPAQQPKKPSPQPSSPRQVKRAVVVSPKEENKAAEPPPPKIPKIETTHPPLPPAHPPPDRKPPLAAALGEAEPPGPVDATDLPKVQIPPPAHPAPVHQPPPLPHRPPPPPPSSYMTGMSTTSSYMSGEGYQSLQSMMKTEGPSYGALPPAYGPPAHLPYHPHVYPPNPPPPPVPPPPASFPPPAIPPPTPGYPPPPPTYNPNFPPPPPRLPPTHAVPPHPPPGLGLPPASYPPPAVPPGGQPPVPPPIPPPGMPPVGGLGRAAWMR
# How it was run: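 MDA-MB-231 cells treated with ZLC491 at increasing concentrations for 15 h (screening at 0.3 μM; time course at 1 μM); SDS lysates immunoblotted, band intensities normalised to α-tubulin. DC50 taken from percent remaining protein versus concentration; representative of three independent experiments.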
# CDK12/13 = assay: Immunoblotting of CDK12 and CDK13 in HCC38 cells; format: cell-based, human; conditions: increasing concentrations, 15 h
# Experimental: To further characterize the compound, we determined the half-degradation concentration (DC50) values of ZLC491 in MDA-MB-231 cells. […] We also treated MDA-MB-231 cells with 1 μM ZLC491 at various time points.
# (A) Immunoblotting of CDK12 and CDK13 in MDA-MB-231 cells treated with increasing concentrations of ZLC491 for 15 h (left). Percent remaining CDK12 and CDK13 proteins were plotted for DC50 determination (right). Protein levels were quantified using ImageJ and normalized to corresponding α-tubulin, then plotted using Graphpad Prism 8.0. The data were representative of three independent experiments; (B) immunoblotting of CDK12 and CDK13 proteins in MDA-MB-231 cells treated with ZLC491 for various time points; immunoblotting of CDK12 and CDK13 in HCC38 (C) and MDA-MB-436 (D) cells treated with increasing concentrations of ZLC491 for 15 h. α-Tubulin was used as a loading control. TEXT PRINTED IN THE PICTURE: (A) ZLC491: MDA-MB-231: CDK12 DC50 = 0.032μM; MDA-MB-231: CDK13 DC50 = 0.028μM DOUBTS OF THE COPYIST ABOUT THIS PICTURE: ZLC491, CDK12 DC50: 0.032 read from small print, the digits 3 and 2 are uncertain / ZLC491, CDK13 DC50: 0.028 read from small print, the last digit may be 8, 6 or 3 […]
smiles,measurement,setting,value
"N#Cc1ccc(N[C@H]2CC[C@H](N(C(=O)NCc3ccccc3)c3ccc(N4CCN(C5CCN(c6cc7c(cc6F)C(=O)N(C6CCC(=O)NC6=O)C7=O)CC5)CC4)cc3)CC2)nc1 (some centres unmarked) [ZLC491, 3-Benzyl-1-((1r,4r)-4-((5-cyanopyridin-2-yl)amino)cyclohexyl)-1-(4-(4-(1-(2-(2,6-dioxopiperidin-3-yl)-6-fluoro-1,3-dioxoisoindolin-5-yl)piperidin-4-yl)piperazin-1-yl)phenyl)urea]","transcription of DDR genes (ATM, ATR, BRCA1, BRCA2, FANCD2, SMARCC)",DDR genes,concentration-dependently suppressed
same,"Protein Degradation (%DMSO control, 0.3 μM) CDK12","CDK12; MDA-MB-231 cells, 0.3 μM, 15 h, immunoblotting, normalized against α-tubulin",85%
same,DC50,"CDK12; MDA-MB-231 cells, 15 h",32 nM
same,Degradation rates of CDK12 at 0.3 μM,"CDK12; supplementary CSV, 0.3 μM",85%
same,depletion of CDK12/13,CDK12/13,concentration-dependent manner
